Measurements published in PMC11371747, “The role of l-leucovorin uptake and metabolism in the modulation of 5-fluorouracil efficacy and antifolate toxicity” (Frontiers in Pharmacology, 2024).

How the values were obtained:
[1] = system: unselected cell lines with a different pathology; set-up: method as in Van der Wilt and Peters, 1994; conditions: large panel of unselected cell lines with a different pathology; ref Van der Wilt and Peters, 1994; cited from earlier work
[2] = target: T1, reduced folate carrier (RFC/SLC19A1) (Homo sapiens, UniProt P41440); test: Inhibition of RFC-mediated [3H]-l-LV influx in CEM-7A cells; format: cell-based; conditions: 5 µM [3H]-l-LV, 2 min, 37°C, read-out: Concentration for 50% inhibition of [3H]-l-LV influx (RFC)
T1 construct: CEM-7A cells, which display 30-fold RFC overexpression relative to wild-type CCRF-CEM cells; endogenous in cells; host or cells: CEM-7A (CCRF-CEM variant, RFC+++ 30-fold)
T1 sequence (P41440 1-591): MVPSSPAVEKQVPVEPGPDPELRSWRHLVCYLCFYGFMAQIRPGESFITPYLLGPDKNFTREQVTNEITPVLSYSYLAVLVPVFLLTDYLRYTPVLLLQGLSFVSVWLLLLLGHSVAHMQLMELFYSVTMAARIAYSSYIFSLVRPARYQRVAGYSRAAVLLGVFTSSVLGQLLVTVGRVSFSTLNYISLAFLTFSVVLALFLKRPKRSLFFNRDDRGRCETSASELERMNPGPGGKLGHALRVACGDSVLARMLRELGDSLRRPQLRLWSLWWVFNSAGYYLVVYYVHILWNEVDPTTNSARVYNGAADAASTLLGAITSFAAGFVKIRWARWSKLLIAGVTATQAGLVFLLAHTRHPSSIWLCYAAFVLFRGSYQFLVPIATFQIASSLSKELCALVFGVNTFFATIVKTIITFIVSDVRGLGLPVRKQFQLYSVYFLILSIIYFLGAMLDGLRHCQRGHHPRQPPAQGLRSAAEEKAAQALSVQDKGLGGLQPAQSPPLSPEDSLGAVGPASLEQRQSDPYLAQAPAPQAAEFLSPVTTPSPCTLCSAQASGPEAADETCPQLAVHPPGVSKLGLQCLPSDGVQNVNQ
Method: (§1) In order to determine whether the LV isomers were substrates for either folate receptor α (FRα), RFC and/or PCFT, we used model systems with established overexpression of these receptors or transporters ([Westerhof et al., 1995a]; [Westerhof et al., 1995b]; [Lasry et al., 2008]; [Van der Heijden et al., 2009]).
CEM-7A cells (2 × 10^6) were suspended in 1 mL HBSS and the assay was initiated by addition of 25 μL 200 μM [^3H]-l-LV; 5,000 pmol (i.e., 5 μM final concentration). Incubations proceeded for 2 min at 37°C in the absence and presence of increasing amounts of unlabelled LV/antifolate drug. Blanks consisted of a separate incubation at 4°C or incubation with 100-fold molar excess of unlabelled l-LV. [^3H]-l-LV influx was terminated by adding 9 mL ice-cold HBSS, centrifugation and an additional wash of the cells with 10 mL ice-cold buffer. Cell pellets were then assessed for radioactivity. Relative affinities for RFC are expressed as the concentration of unlabelled drug necessary to inhibit [^3H]-l-LV uptake by 50%.

human PCFT = target: T2, human PCFT (Homo sapiens, UniProt Q96NT5); test: Inhibition of PCFT-mediated [3H]-l-LV influx in CHO/C5-PCFT cells; format: cell-based, Chinese hamster (CHO cells); conditions: CHO/C5/PCFT cells, 2.5 µM [3H]-l-LV, pH 5.5, 3 min; read-out: Concentration for 50% inhibition of PCFT-mediated [3H]-l-LV influx
T2 construct: expressed in transfected cells; host or cells: CHO/C5 (RFC-deficient Chinese hamster ovary cells, no PCFT)
T2 sequence (Q96NT5 1-459): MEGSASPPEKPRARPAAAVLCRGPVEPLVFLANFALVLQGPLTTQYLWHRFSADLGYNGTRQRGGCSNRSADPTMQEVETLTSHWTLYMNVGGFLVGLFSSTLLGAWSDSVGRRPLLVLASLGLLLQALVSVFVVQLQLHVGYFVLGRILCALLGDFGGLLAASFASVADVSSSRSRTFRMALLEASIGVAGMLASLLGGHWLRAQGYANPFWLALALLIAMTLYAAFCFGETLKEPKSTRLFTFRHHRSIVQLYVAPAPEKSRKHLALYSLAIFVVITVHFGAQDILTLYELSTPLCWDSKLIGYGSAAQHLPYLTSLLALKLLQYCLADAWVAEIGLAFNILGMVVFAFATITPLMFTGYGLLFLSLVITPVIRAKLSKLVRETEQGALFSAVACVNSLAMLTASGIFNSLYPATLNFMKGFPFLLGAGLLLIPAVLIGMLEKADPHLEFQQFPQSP
Method: as §1
The competitive inhibition by 2.5 μM [^3H]-l-LV influx of PCFT was measured essentially as described for the RFC assay, except that the incubation time was 3 min, at pH 5.5 (the optimal pH for PCFT) and pH 7.4 with increasing amounts of unlabelled LV stereoisomers/antifolate drug. For PCFT too, relative affinities were expressed as the concentration of unlabelled drug necessary to inhibit 50% of [^3H]-l-LV influx.

folate receptor α (FRα) = target: T3, folate receptor α (FRα) (Homo sapiens, UniProt P15328); test: Intact cell competitive binding assay, displacement of [3H]-folic acid from FRα in KB cells
T3 construct: endogenous in cells; host or cells: KB cells (FRα++)
T3 sequence (P15328 25-257): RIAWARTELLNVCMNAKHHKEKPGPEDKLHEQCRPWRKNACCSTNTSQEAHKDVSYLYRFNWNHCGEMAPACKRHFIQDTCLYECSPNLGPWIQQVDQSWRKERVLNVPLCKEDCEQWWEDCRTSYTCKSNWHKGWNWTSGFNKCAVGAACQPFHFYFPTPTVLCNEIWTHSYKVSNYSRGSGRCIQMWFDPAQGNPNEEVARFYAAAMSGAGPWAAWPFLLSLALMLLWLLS
Method: as §1
For FRα we used KB cells ([Westerhof et al., 1995b]). An intact cell binding assay for competitive binding was performed as described previously ([Westerhof et al., 1995a]). Briefly, cells were washed with Hanks balanced salt solution and 6 mM glucose (HBSS, pH 7.4), suspended in 1 mL of this solution (1*10^6 for KB cells) and incubated at 4°C for 15 min with 100 pmol [^3H]-folic acid [(^3H)-FA], in the presence and absence of unlabelled folic acid or LV stereoisomers. Cells were collected by centrifugation and analysed for radioactivity. Relative affinities for FRα were defined as the inverse ratio of compound to displace 50% of radioactive folic acid from FRα. The relative affinity of folic acid was set at 1.

For `Nc1nc2c(c(=O)[nH]1)N(C=O)C(CNc1ccc(C(=O)N[C@@H](CCC(=O)O)C(=O)O)cc1)CN2` (mixture of isomers) [dl-LV], the “Enhancement of the effect of 5FU by dl-LV” value [1] is given as “about 2 fold”, the IC50 [2] is given as 7.3 µM and the IC50 (human PCFT) is given as 4.5 µM. The “50% [3H]-FA displacement, fold lower concentration than l-LV” value (folate receptor α (FRα)) was 2 fold and the “Relative affinity for FRα” value (folate receptor α (FRα); 100 pmol [3H]-FA, inverse ratio of amount of drug displacing 50% of [3H]-FA, FA set to 1) was 0.041.
